The target in data set [1] is T1, CB1 (Homo sapiens, UniProt P21554).
T1 construct: expressed in transfected cells; host or cells: CHO-K1 (membranes)
Description: CB1 activated Gαq16-coupled intracellular calcium mobilization assay in CHO-K1 cells (apparent affinity Ke). Format: cell-based.

The target in data set [2] is T1, CB1. Kind of data set: Radioligand displacement of [3H]SR141716 at CB1. The class given is binding. The note with it: Table 4; read-out: Ki (nM) v. [3H] SR141716 at CB1. A general note: Displacement assays read how much labelled ligand stays bound in the presence of the test substance.
In data set [3] the target is T1, CB1. Description: Displacement of [3H]CP55940 in membranes of CHO-K1 cells over-expressing CB1. Format: binding. The note with it: Table 4; for Binding Selectivity using CP55940 Displacement: CB2 Ki over CB1 Ki; for Ki: read-out: Ki (nM) v. [3H] CP55940 at CB1.
A further data set has as its target T2, CB2 (Homo sapiens, UniProt P34972).
T2 construct: expressed in transfected cells; host or cells: CHO-K1 (membranes)
Kind of data set: Displacement of [3H]CP55940 in membranes of CHO-K1 cells over-expressing CB2. Format: binding. The note with it: Table 4; read-out: Ki (nM) v. [3H] CP55940 at CB2. The procedure: All compounds were characterized by H^1 NMR and evaluated using a calcium mobilization assay. Each compound was pharmacologically characterized using a functional fluorescent CB1 activated Gαq16-coupled intracellular calcium mobilization assay in CHO-K1 cells as has been previously described and apparent affinity (Ke) values were determined. See Zhang et al., J. Med. Chem. 2010, 53, 7048, which is incorporated herein by reference. Further characterization of select compounds was performed using radioligand displacement of [3H]1 and equilibrium dissociation constant (Ki) values were determined. Selectivity of these compounds at CB1 versus CB2 was also determined by obtaining Ki values at either receptor using displacement of [3H]CP55940 in membranes of CHO-K1 cells over-expressing either receptor. Data reported are average values from 3-6 measurements.
Select compounds were chosen for further study in radioligand displacement assays using radiolabeled rimonobant, SR141716 ([^3H]1). […] Selectivity against the CB2 receptor was determined by comparing the compound displacement of radiolabeled CP55940, which is a cannabinoid known to act as a full agonist at both CB1 and CB2 receptors. In general, tested compounds were selective for CB1 over CB2.

The test system of another data set is MDCK-MDR. Kind of data set: MDCK-MDR transport (apical to basal). Format: in vitro ADME. The note with it: Table 4.
Setting [4] is: Table 4, calcium mobilization, read-out: Ke (nM) at CB1.

The structures appear in SMILES notation. Where two headings read alike, the source gives them in different places.

T2 sequence (P34972 whole entry): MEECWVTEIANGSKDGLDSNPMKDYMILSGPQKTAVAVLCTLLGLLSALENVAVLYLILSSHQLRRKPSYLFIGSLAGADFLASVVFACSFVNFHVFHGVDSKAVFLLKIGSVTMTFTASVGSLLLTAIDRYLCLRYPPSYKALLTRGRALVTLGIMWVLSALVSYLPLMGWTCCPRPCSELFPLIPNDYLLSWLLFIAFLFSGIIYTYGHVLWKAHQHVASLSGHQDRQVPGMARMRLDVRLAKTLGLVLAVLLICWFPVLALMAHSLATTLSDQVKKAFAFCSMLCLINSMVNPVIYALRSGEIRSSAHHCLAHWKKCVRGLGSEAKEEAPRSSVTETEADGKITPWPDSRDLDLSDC
T1 sequence (P21554 whole entry): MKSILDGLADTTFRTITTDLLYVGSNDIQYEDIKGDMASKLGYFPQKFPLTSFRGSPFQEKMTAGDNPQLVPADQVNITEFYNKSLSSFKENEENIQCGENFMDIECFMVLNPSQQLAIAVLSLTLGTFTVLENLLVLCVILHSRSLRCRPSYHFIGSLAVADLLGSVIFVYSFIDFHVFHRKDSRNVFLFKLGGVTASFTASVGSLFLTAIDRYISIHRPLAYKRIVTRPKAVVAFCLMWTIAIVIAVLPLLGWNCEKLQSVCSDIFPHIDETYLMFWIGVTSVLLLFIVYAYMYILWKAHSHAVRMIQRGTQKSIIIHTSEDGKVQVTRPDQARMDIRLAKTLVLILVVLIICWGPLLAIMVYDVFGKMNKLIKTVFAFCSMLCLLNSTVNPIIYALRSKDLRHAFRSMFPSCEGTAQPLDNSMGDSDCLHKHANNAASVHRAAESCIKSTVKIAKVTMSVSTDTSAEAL

One may read the Ki as the dissociation constant of the complex between target and ligand, obtained from inhibition or displacement. Regarding `Cc1c(C(=O)N2CCC(C(N)=O)(c3ccccc3)CC2)nn(-c2ccc(Cl)cc2Cl)c1-c1ccc(Cl)cc1` [Cl, phenyl, C(O)NH2, 1-{[5-(4-chlorophenyl)-1-(2,4-dichlorophenyl)-4-methyl-1H-pyrazol-3-yl]carbonyl}-4-phenylpiperidine-4-carboxamide], the Kb at CB1 [1] came out at 0.45 nM. For the same compound, the figures for the Ki at CB1 [2], on CB1 [3] and on CB2 were 0.44 nM, 3.44 nM and 5500 nM, respectively. Moreover, the “Binding Selectivity using CP55940 Displacement” value (“Binding Selectivity” below) at CB1 [3] is recorded as 1600.0. Moreover, in the data set with MDCK-MDR, the “% MDCK-MDR transport (apical to basal)” value came out at 8.1 ± 11.5%.

As to `Cc1c(C(=O)N2CCC(C(=O)NC(C)(C)C)(c3ccccc3)CC2)nn(-c2ccc(Cl)cc2Cl)c1-c1ccc(Cl)cc1` [Cl, phenyl, C(O)NH(t-butyl), N-(tert-butyl)-1-(5-(4-chlorophenyl)-1-(2,4-dichlorophenyl)-4-methyl-1H-pyrazole-3-carbonyl)-4-phenylpiperidine-4-carboxamide], on CB1 [3], the “Binding Selectivity” value is 421.6 and the Ki amounted to 19.9 nM. For the same compound, the Ki on CB2 stood at 8390 nM. The “% MDCK-MDR transport (apical to basal)” value with MDCK-MDR is reported as <1%.

With `Cc1c(C(=O)N2CCC(N)(c3ccccc3)CC2)nn(-c2ccc(Cl)cc2Cl)c1-c1ccc(Cl)cc1` [Cl, phenyl, NH2, 1-{[5-(4-chlorophenyl)-1-(2,4-dichlorophenyl)-4-methyl-1H-pyrazol-3-yl]carbonyl}-4-phenylpiperidin-4-amine], the Kb at CB1 [1] (setting [4]) amounted to 485 nM. In addition, the Ki at CB1 [2] came to 30.5 nM; at CB1 [3], 104 nM; at CB2, 1130 nM. At CB1 [3], the “Binding Selectivity” value is listed as 10.8.

In the case of `CC(=O)NC1(c2ccccc2)CCN(C(=O)c2nn(-c3ccc(Cl)cc3Cl)c(-c3ccc(Cl)cc3)c2C)CC1` [Cl, phenyl, NHC(O)CH3, N-(1-{[5-(4-chlorophenyl)-1-(2,4-dichlorophenyl)-4-methyl-1H-pyrazol-3-yl]carbonyl}-4-phenylpiperidin-4-yl)acetamide], the Kb at CB1 [1] (setting [4]) worked out at 201 nM. For the same compound, the inhibition constant Ki came to 13.7 nM on CB1 [2], 62.6 nM on CB1 [3] and 214 nM at CB2. At CB1 [3], the “Binding Selectivity” value was 3.4.

Take `Cc1c(C(=O)N2CCC(NC(=O)NC(C)(C)C)(c3ccccc3)CC2)nn(-c2ccc(Cl)cc2Cl)c1-c1ccc(Cl)cc1` [Cl, phenyl, NHC(O)NH(t-butyl), 3-tert-butyl-1-(1-{[5-(4-chlorophenyl)-1-(2,4-dichlorophenyl)-4-methyl-1H-pyrazol-3-yl]carbonyl}-4-phenylpiperidin-4-yl)urea]: the inhibition constant (Ki) at CB1 [2] was 18.1 nM; at CB1 [3], 47.1 nM; at CB2, ≥ 20000 nM. Further, the “Binding Selectivity” value on CB1 [3] turned out to be 424.6. Besides, in the data set with MDCK-MDR, the “% MDCK-MDR transport (apical to basal)” value is on record as <1%.

Take `Cc1c(C(=O)N2CCC(NC(=O)NC(C)C)(c3ccccc3)CC2)nn(-c2ccc(Cl)cc2Cl)c1-c1ccc(Cl)cc1` [Cl, phenyl, NHC(O)NHCH(CH3)2, 1-(1-{[5-(4-chlorophenyl)-1-(2,4-dichlorophenyl)-4-methyl-1H-pyrazol-3-yl]carbonyl}-4-phenylpiperidin-4-yl)-3-(propan-2-yl)urea]: on CB1 [3], the “Binding Selectivity” value is 364.0. Further, the Ki is 13.5 nM at CB1 [3] and 4910 nM on CB2. Also, in the data set with MDCK-MDR, the “% MDCK-MDR transport (apical to basal)” value is <1%.

In the case of `Cc1c(C(=O)N2CCC(NC(=O)OC(C)(C)C)(c3ccccc3)CC2)nn(-c2ccc(Cl)cc2Cl)c1-c1ccc(Cl)cc1` [Cl, phenyl, NHC(O)O(t-butyl), tert-Butyl N-(1-{[5-(4-chlorophenyl)-1-(2,4-dichlorophenyl)-4-methyl-1H-pyrazol-3-yl]carbonyl}-4-phenylpiperidin-4-yl)carbamate], the inhibitory constant (Ki) at CB1 [2] turned out to be 6.02 nM; on CB1 [3] it was 42.3 nM; on CB2, 2110 nM. Also, on CB1 [3], the “Binding Selectivity” value is 48.9. Moreover, the “% MDCK-MDR transport (apical to basal)” value in the data set with MDCK-MDR is listed as <1%.

For the compound `Cc1c(C(=O)N2CCC(NS(C)(=O)=O)(c3ccccc3)CC2)nn(-c2ccc(Cl)cc2Cl)c1-c1ccc(Cl)cc1` [Cl, phenyl, NHSO2CH3, N-(1-{[5-(4-chlorophenyl)-1-(2,4-dichlorophenyl)-4-methyl-1H-pyrazol-3-yl]carbonyl}-4-phenylpiperidin-4-yl)methanesulfonamide], the Ki at CB1 [2] is 3.28 nM; on CB1 [3], 7.27 nM; on CB2 it was 41 nM. Moreover, the “Binding Selectivity” value at CB1 [3] came out at 5.6. In the data set with MDCK-MDR, the “% MDCK-MDR transport (apical to basal)” value is given as 3.14 ± 0.89%.

As for `Cc1c(C(=O)N2CCC(O)(c3ccccc3)CC2)nn(-c2ccc(Cl)cc2Cl)c1-c1ccc(Cl)cc1` [Cl, phenyl, OH, 1-{[5-(4-chlorophenyl)-1-(2,4-dichlorophenyl)-4-methyl-1H-pyrazol-3-yl]carbonyl}-4-hydroxy-4-phenylpiperidine], the inhibitory constant (Ki) at CB1 [2] is 9.63 nM; at CB1 [3], 67.4 nM; on CB2, 831 nM. The “Binding Selectivity” value on CB1 [3] was determined as 12.3.

`Cc1c(C(=O)N2CCC(O)(c3ccccc3)CC2)nn(-c2ccc(Cl)cc2Cl)c1-c1ccc(N(C)C)cc1` [N(CH3)2, phenyl, OH, 1-{[1-(2,4-dichlorophenyl)-5-[4-(dimethylamino)phenyl]-4-methyl-1H-pyrazol-3-yl]carbonyl}-4-phenylpiperidin-4-ol]: on CB1 [1] (setting [4]), the Kb was 679 nM. The results for the Ki on CB1 [2], on CB1 [3] and at CB2 were 72.5 nM, 384 nM and 400 nM, respectively. The “Binding Selectivity” value at CB1 [3] came out at 1.0.

The values are drawn from US9133128B2, “Pyrazole derivatives as cannabinoid receptor 1 antagonists” (Research Triangle Institute, priority 2011, dated 2015).
